Data reported in patent EP1588705A1, “Use of coumarin derivatives” (INTE:LIGAND Software-Entwicklungs und Consulting GmbH, priority 2004, dated 2005).
Counter-ions that a name gives are not always drawn.

Columns and labels:
[1] = target: T1, acetylcholinesterase (Electrophorus electricus, UniProt O42275); test: biochemical
Source text: (§1) In both test systems, the enzyme (acetylcholinesterase, Sigma-Aldrich Chemie GmbH, Steinheim, Germany) hydrolyzes the substrate acetylthiocholine (acetylthiocholiniodid, Sigma-Aldrich Chemie GmbH, Steinheim, Germany) to produce thiocholine. This reacts with Ellman's reagent (5,5'-dithiobis-(2-nitrobenzoic acid), Sigma-Aldrich Chemie GmbH, Steinheim, Germany) resulting in 5-thio-2-nitrobenzoate and the yellow colored 2-nitrobenzoate-5-mercaptothiocholine. This latter was visually detected in the TLC test.
The self absorbance of all ingredients of the assay was corrected by subtracting the absorbance at time zero from the subsequent absorbance values. […] For all three substances the concentration dependence of their AChE inhibitory activity was determined. Percentage of the enzyme inhibition was calculated by comparing the rates for the sample to the blank (containing 1% DMSO) and analyzed with Student's t-test.

[2] = tested on: extracellular concentration of ACh in the nucleus accumbens; test: in vivo extracellular ACh concentration, push-pull technique, i.c.v. injection; parameters: species or system Sprague-Dawley rats; settings: 2 µmol i.c.v.; for extracellular concentration of ACh (relative value, means ± SEM): mean before drug = 1.0
Source text: Surgery and push-pull technique: Sprague-Dawley rats (250-350 g) were anaesthetized with urethane 1,2 g/kg, i.p. The head was fixed in a stereotaxic frame and a push-pull cannula (outer tubing: o.d. 0.75 mm, i.d. 0.41 mm; inner tubing: o.d. 0.26 mm, i.d. 0.13 mm) was mounted on a microdrive. This was stereotaxically inserted through a hole in the skull into the nucleus accumbens (coordinates, mm from bregma: AP, +1.2; L, +2.5; V, -7.8; Paxinos & Watson, 1998). A second hole was drilled into the skull for the i.c.v. application of drugs (coordinates, mm from bregma: AP, -2,8; L, +1,5) The nucleus accumbens was superfused at 20µL/min with artificial cerebrospinal fluid (aCSF), pH 7.2. The CSF consisted of: NaCl,140; KCI, 3; CaCl2, 1.2; MgCl2 1; Na2HPO4, 1; NaH2PO4, 0.3; glucose 3.0 (mmol I^-1), neostigmine 1.0 (µmol/l^-1). After 1 h of the cannula insertion the samples were collected into tubes kept at -20° C in time periods of 10 min and then stored at -80° C until acetylcholine (Ach) was determined.
Using a motorized microsyringe connected to a stereotaxic microdrive, the tip was introduced with an angle of 60° through the drug application-hole into the ipsilateral ventricle (coordinates mm from bregma: AP, -0,9; L, +1,5; V, -3,8) via a cannula (o.d., 0,65; i.d., 0,38). The drug solutions were injected at 2µL/min. The control rats were injected with the vehicle (DMSO: EtOH 1:1).
Histology: At the end of the experiment the rat was killed with an overdose of urethane, the brain was removed and stored in buffered formaldehyde solution (7%). Serial coronal sections were cut at 50 µm intervals. Localisation of the push-pull cannula and i.c.v. microinjection was verified. Experiments with unsatisfactory localisation were discarded.
Determination of acetylcholine: (Ach): ACh content in the samples was determined by HPLC with a cation-exchanging analytical column and a post-column reactor followed by electrochemical detection (Damsma et al, 1997; Prast et al; 1998). The system consisted of a HPLC-pump (JASCO PU-1580, Jasco Corporation, Tokyo, Japan), a pulse dampener and an autosampler (AS-4000, Hitachi Ltd., Tokyo, Japan) with a 100-µL sample loop. […] The peroxide was electrochemically detected by a UniJet platin electrode (3mm) at +500 mV with an amperometric detector (BAS LC-4, Bioanalytical Systems, West Lafayette, IN, USA). […] ACh was quantified with external standards that were injected at the beginning and the end of the analysis.
Statistical significance of drug effects on the extracellular ACh concentration was calculated by Friedman's analysis of variance, followed by Wilcoxon's signed rank test for paired data (a p<0.08, * p<0.05, ** p<0,001) using the mean concentration rate before the administration of drugs as controls. […]

[3] = target: T1, acetylcholinesterase; test: bioautographic TLC test for AChE inhibitory activity (Ellman's method); format: biochemical; parameters: purchased Sigma-Aldrich Chemie GmbH, Steinheim, Germany; settings: spots of methanolic extract of S. carniolica rhizomes, Rf 0.6 (SCT) and 0.4 (SCN); false positives excluded
Experimental: The AChE inhibitory activity of the methanolic crude extract was qualitatively determined in a TLC assay using Ellman's method (Ellman, et al, 1961). Additionally a test to exclude false positive results was conducted described by Rhee et al, 2003. The used silica gel TLC plates 60F254 (0.2 mm thickness) were purchased from Merck (Darmstadt, Germany). […] Enzyme inhibitory activities were detected by spraying the substrate, dye and enzyme described by Rhee and coauthors (Rhee et al, 2001).
as §1

[4] = tested on: mice; test: object recognition task; format: in vivo
Experimental: (§2) […] female, 3-month mice, weighing 20 - 27 g, were used in the present study. The animals were housed in groups of six to ten in cages (40 (L) x 25 (W) x 15 (H) cm) placed in a room at a constant temperature (22±1 °C), 12-light/ 12-dark cycle (07:00-19:00 h), with food and water ad libitum. Experiments were conducted between 09:00 and 16:00h.
(§3) Mice were anaesthetized with Pentobarbital sodium (60 mg/kg, i.p.) and placed in a stereotaxic frame. A guide cannula (gauge 25, o.d. 0.52 mm, i.d, 0.26 mm and 7 mm long) was stereotaxically implanted through a hole on the skull into the brain area 0.5 mm higher than the third cerebral ventricle (-0.1 mm posterior, 0.8 mm lateral to bregma, -2.2 mm ventral to the dura) (Franklin and Paxinos, 1997). Guide cannula was secured to the skull using two small screws and dental cement. The microinjector (Hamilton gauge 32, o.d. 0.24 mm and i.d. 0.11 mm, 7.5 mm long) protruded 0.5 mm from the tip of the guide cannula to reach the cerebral ventricle. Mice recovered for 5 days before any experimentation was done.
Scopolamine hydrobromide (Sigma, St. Louis, MO, U.S.A.) was dissolved in saline. […]
Exploration was defined as follows: directing the nose toward the object at a distance of less than 0.5 cm and/or touching the object with the nose. […] The times spent by mice in exploring each object during T1 and T2 were recorded manually by using a stopwatch. […]

[5] = tested on: mice; test: T-maze continuous alternation; format: in vivo
Experimental: as §2, §3
Scopolamine hydrobromide (Sigma, St. Louis, MO, U.S.A.) was dissolved in saline. SCT (Sigma-Aldrich Chemie GmbH, Steinheim, Germany) was dissolved in vehicle solution (DMSO:sterile water, 3:7). The animals were randomly divided into experimental groups and administered a cerebral ventricle injection of saline, scopolamine, SCT or scopolamine and SCT in a volume of 1 or 2 µl during 1 min. The injector was left in place an extra 1 min for drug diffusion after injection. These substances and vehicle were injected 15 min prior to the test.
Animals were randomly divided into […] experimental groups (6 mice per group) as follows: vehicle, scopolamine hybrobromide 20 µg (50 nmol) in 1µl ICV, SCT 2 µg (10 nmol) in 2µl ICV and scopolamine hybrobromide 20 µg plus SCT 2 µg ICV. All substances were injected 15 min before the test (T-maze and open field) or before the training trial T1 (object recognition test) through the 7.5 mm long injector connected with i.d. 0.28 mm polyethylene tubing to 5 µl Hamilton syringe. […]

[6] = tested on: mice; test: open field locomotor behaviour; format: in vivo; settings: 2 µg ICV, 30 min
Experimental: as §2
as §3, with “done. […]” for “done.”
The open field consisted of a transparent plastic box with white floor (41 x 41 x 41 cm) equipped with an automated activity monitoring system (True Scan, Coulbourn Instruments, Allentown, USA). […] The time spent in box and the overall distance travelled by the mice were monitored for 30 min. […]

T1 sequence (O42275 24-633): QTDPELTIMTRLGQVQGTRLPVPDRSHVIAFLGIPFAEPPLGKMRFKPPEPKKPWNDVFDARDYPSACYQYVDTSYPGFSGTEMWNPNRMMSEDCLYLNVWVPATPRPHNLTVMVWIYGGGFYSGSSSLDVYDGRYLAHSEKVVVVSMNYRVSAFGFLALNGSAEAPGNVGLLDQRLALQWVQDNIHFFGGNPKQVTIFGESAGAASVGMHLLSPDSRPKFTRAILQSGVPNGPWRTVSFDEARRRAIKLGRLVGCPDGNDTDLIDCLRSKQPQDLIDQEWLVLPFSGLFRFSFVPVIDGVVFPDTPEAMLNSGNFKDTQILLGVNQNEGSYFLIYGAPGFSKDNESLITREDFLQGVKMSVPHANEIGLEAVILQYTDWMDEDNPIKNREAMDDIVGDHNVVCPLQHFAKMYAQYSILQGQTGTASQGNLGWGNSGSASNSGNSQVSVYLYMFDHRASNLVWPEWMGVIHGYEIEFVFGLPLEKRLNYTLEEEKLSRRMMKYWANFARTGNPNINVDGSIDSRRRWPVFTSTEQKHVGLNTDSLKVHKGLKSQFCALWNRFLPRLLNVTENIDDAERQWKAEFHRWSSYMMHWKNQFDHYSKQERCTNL

| Compound | inhibition of AChE, statistical significance ([1]; 1000, 500 and 250 µM) | inhibition at 1000 µM ([1]; read-out: AChE inhibitory activity) [%] | time until inhibitory activities reach their maximum extent ([1]; three highest concentrations) [min] | change of inhibitory activity towards endpoint of measurement at 90 min ([1]; three highest concentrations, after maximum in first 15 min) | ACh concentration after decline, of basal value ([2]; following the initial peak) | initial peak concentration of ACh, of basal value ([2]; rat nucleus accumbens) | extracellular concentration of ACh (relative value, means ± SEM) ([2]; rat nucleus accumbens) | AChE inhibitory activity of fluorescent TLC spot [3] | change of inhibitory activity up to 90 min ([1]; higher concentrations (250, 500, 1000 µM)) | duration of inhibitory activity ([1]; lower concentrations (62.5, 125 µM)) | time until level of inhibitory activity is reached ([1]; lower concentrations (62.5, 125 µM), after adding enzyme to substrate) [min] | discrimination index, effect on scopolamine-induced impairment of object recognition ([4]; SCT 2 µg ICV plus scopolamine 20 µg ICV, 15 min before T1, mice) | alternation rate ([5]; 2 µg ICV alone) [%] | effect on scopolamine-induced decrease in alternation rate ([5]; SCT 2 µg ICV plus scopolamine 20 µg ICV) | move distance, reduction compared to vehicle-treated controls [6] | move time in the open field ([6]; vs vehicle-treated controls) | effect on learning in object recognition (discrimination novel vs familiar object in T2) ([4]; 20 µg ICV, mice) | effect on alternation rate ([5]; 20 µg ICV) |
| --- | --- | --- | --- | --- | --- | --- | --- | --- | --- | --- | --- | --- | --- | --- | --- | --- | --- | --- |
| COc1cc2ccc(=O)oc2cc1O[C@@H]1O[C@H](CO)[C@@H](O)[C@H](O)[C@H]1O [SCN, scopolin] | significant | 30.1 | ≤ 15 | slight decrease | about 200% | about 400% | 3.18 ± 0.78 | positive |  |  |  |  |  |  |  |  |  |  |
| COc1cc2ccc(=O)oc2cc1O [SCT, scopoletin] |  |  |  |  |  |  | 1,74 ± 0,24 | positive | slight, almost insignificant increase | at least 90 min | ≤ 15 | significantly increased | 63 ± 5 | abolished | about 20% | only slightly decreased |  |  |
| CN1[C@@H]2C[C@@H](OC(=O)[C@H](CO)c3ccccc3)C[C@H]1[C@@H]1O[C@@H]12 [Scopolamine, Scopolamine hydrobromide, reference compound] |  |  |  |  |  |  |  |  |  |  |  |  |  |  |  |  | drastic impairment of learning | pronounced decrease |
